According to patent US8980833B2, “Tubulysine derivatives” (priority 2007, dated 2015):
Like-named read-outs stand apart in the source and are kept apart here.

Experiments:
Type in all cases: cell-based
A2780 (ovarian) cells = test: MTS cell survival assay, A2780 (ovarian); conditions: 48 hours incubation, read-out: IC50 cell line A2780
Description: (§1) Seed 96-well plates at a concentration of 5000 cells/well in a volume of 100 μl with A2780 (ovarian), HT-29 (colon), MDA-MB-231 (breast), NCI-H1299 (non-small cell lung, MCF-7 (breast) cells or any other available cancer cell line. Incubate for 24 hours at 37° C.
(§2) Prepare a stock solution of Tubulysin derivative by dissolving at 10 mg/ml in methanol. Prepare dilutions of 1 mg/ml in methanol and 17 μg/ml (20 μM) in cell culture medium, and make serial 10-fold dilutions down to 2 pM in cell culture medium.
(§3) Add 100 μl of Tubulysin to triplicate wells for a final dose range of 1 pM to 10 μM. Reserve three wells for “untreated” cells and three wells of medium alone as a “blank”. Incubate plates at 37° C. for 48 hours.
(§4) Prepare MTS assay reagent by diluting CellTiter 96 AQueous One Solution (Promega) 5-fold into PBS/glucose (4.5 g/L). Aspirate cell culture medium. Aliquot 100 μl of MTS reagent to each well. Incubate at 37° C. for 1-2 hours depending on the cell line.
(§5) Shake the plates for 5 minutes and measure the absorbance at 485 nm using a plate reader (e.g. Tecan). Enter the raw data into an excel spreadsheet to obtain the % cell survival for each cell line. Graph dose (nM) vs. % cell survival and estimate IC50s from the graphs.
(§6) Use a 4-parameter logistic fit to obtain IC50 values: y=(a−d)/(1+(x/c)^b)+d • where • x=dose • y=% cell survival • a=lower asymptote • b=slope • c=IC50 • d=upper asymptote
(§7) Enter values for x and y. Estimate values for a, b, c, and d. Run the solver tool on the sum of squared errors cell. Minimize the sum of squared errors by varying parameters a through d. Obtain the IC50 (nM) from parameter c.

MCF-7 (breast) cells = test: MTS cell survival assay, MCF-7 (breast); conditions: read-out: IC50 cell line MCF-7
Description: as §1, §2, §3, §4, §5, §6, §7

HT-29 (colon) cells = test: MTS cell survival assay, HT-29 (colon); conditions: 48 hours incubation, read-out: IC50 cell line HT-29
Description: as §1, §2, §3, §4, §5, §6, §7

[1] = tested on: NCI-H1299 (non-small cell lung) cells; test: MTS cell survival assay, NCI-H1299 (non-small cell lung); conditions: Homo sapiens, 48 hours incubation, read-out: IC50 cell line NCI-H1299
Description: as §1, §2, §3, §4
Shake the plates for 5 minutes and measure the absorbance at 485 nm using a plate reader (e.g. Tecan). Enter the raw data into an excel spreadsheet to obtain the % cell survival for each cell line. Graph dose (nM) vs. % cell survival and estimate IC50s from the graphs. […]

[2] = Homo sapiens, MCF7, 48 hours incubation

SMILES: CC[C@H](C)C(NC(=O)C1CCCCN1C)C(=O)N(COC(=O)CC(C)C)[C@H](C[C@@H](OC(C)=O)c1nc(C(=O)N[C@@H](Cc2ccc(O)cc2)C[C@H](C)C(=O)O)cs1)C(C)C (stereo partly shown)
- IC50 (A2780 (ovarian) cells): 0.8 nM
- IC50 (MCF-7 (breast) cells; 48 hours incubation): 0.6 nM
- IC50 (HT-29 (colon) cells): 0.75 nM

SMILES: CC[C@H](C)C(NC(=O)C1CCCCN1C)C(=O)N(CC)[C@H](C[C@@H](O)c1nc(C(=O)N[C@H](CCN)Cc2ccc(F)cc2)cs1)C(C)C (stereo partly shown)
- IC50 (MCF-7 (breast) cells; [2]): 15.2 nM
- IC50 (HT-29 (colon) cells; Homo sapiens): 23 nM

SMILES: CC[C@H](C)C(NC(=O)C1CCCN1C)C(=O)N(C)[C@H](C[C@@H](OC(C)=O)c1nc(C(=O)N[C@@H](Cc2ccc(F)cc2)C[C@H](C)C(=O)O)cs1)C(C)C (stereo partly shown)
- IC50 (MCF-7 (breast) cells; [2]): 1.1 nM
- IC50 (HT-29 (colon) cells; Homo sapiens): 3.1 nM

SMILES: CCCN(C(=O)C(NC(=O)C1CCCCN1C)[C@@H](C)CC)[C@H](CCc1nc(C(=O)N[C@H](CCCO)Cc2ccccc2)cs1)C(C)C (stereo partly shown)
- IC50 (A2780 (ovarian) cells; Homo sapiens): 1.6 nM
- IC50 (HT-29 (colon) cells; Homo sapiens): 4.3 nM

SMILES: CCCCCCN(C(=O)C(NC(=O)C1CCCCN1C)[C@@H](C)CC)[C@H](C[C@@H](OC(C)=O)c1nc(C(=O)N[C@@H](Cc2ccc(OC)cc2)C[C@H](C)C(=O)O)cs1)C(C)C (stereo partly shown)
- IC50 (HT-29 (colon) cells; Homo sapiens): 0.43 nM

SMILES: CC[C@H](C)C(NC(=O)C1CCCCN1C)C(=O)N(C)[C@H](C[C@@H](OC(C)=O)c1nc(C(=O)N[C@@H](Cc2ccc(OC)cc2)C[C@H](C)C(=O)O)cs1)C(C)C (stereo partly shown)
- IC50 (A2780 (ovarian) cells; Homo sapiens): 0.8 nM
- IC50 (MCF-7 (breast) cells; [2]): 0.6 nM
- IC50 (HT-29 (colon) cells; Homo sapiens): 2 nM

SMILES: CCCN(C(=O)C(NC(=O)C1CCCCN1C)[C@@H](C)CC)[C@H](C[C@@H](OC(C)=O)c1nc(C(=O)N[C@@H](Cc2ccc(F)cc2)C[C@H](C)C(=O)O)cs1)C(C)C (stereo partly shown)
- IC50 [1]: 0.52 nM
- IC50 (A2780 (ovarian) cells; Homo sapiens): 0.3 nM
- IC50 (MCF-7 (breast) cells; [2]): 0.4 nM
- IC50 (HT-29 (colon) cells; Homo sapiens): 0.48 nM

SMILES: CCCN(C(=O)C(NC(=O)C1CCCCN1C)[C@@H](C)CC)[C@H](C[C@@H](OC(C)=O)c1nc(C(=O)N[C@H](CCC(=O)O)Cc2ccc(F)cc2)cs1)C(C)C (stereo partly shown)
- IC50 (A2780 (ovarian) cells; Homo sapiens): 0.3 nM
- IC50 (HT-29 (colon) cells; Homo sapiens): 0.49 nM

SMILES: CCCN(C(=O)C(NC(=O)C1CCCCN1C)[C@@H](C)CC)[C@H](CCc1nc(C(=O)N[C@H](CCC(=O)O)Cc2ccccc2)cs1)C(C)C (stereo partly shown)
- IC50 (A2780 (ovarian) cells; Homo sapiens): 1.1 nM
- IC50 (HT-29 (colon) cells; Homo sapiens): 3.1 nM

SMILES: CC(=O)O[C@H](C[C@H](C(C)C)N(COC(=O)c1ccccc1)C(=O)C(NC(=O)C1CCCCN1C)C(C)C)c1nc(C(=O)N[C@H](CCC(=O)O)Cc2ccc(F)cc2)cs1 (stereo partly shown)
- IC50 (MCF-7 (breast) cells; [2]): 0.4 nM
- IC50 (HT-29 (colon) cells; Homo sapiens): 0.45 nM

SMILES: CCCN(C(=O)C(NC(=O)C1CCCCN1C)[C@@H](C)CC)[C@H](C[C@@H](OC(C)=O)c1nc(C(=O)N[C@@H](Cc2ccc(-c3ccccc3)cc2)C[C@H](C)C(=O)O)cs1)C(C)C (stereo partly shown)
- IC50 (MCF-7 (breast) cells; [2]): 0.4 nM
- IC50 (HT-29 (colon) cells; Homo sapiens): 0.28 nM

SMILES: CC[C@H](C)C(NC(=O)C1CCCCN1C)C(=O)N(COCC(C)C)[C@H](C[C@@H](OC(C)=O)c1nc(C(=O)N[C@@H](Cc2ccc(F)cc2)C[C@H](C)C(=O)O)cs1)C(C)C (stereo partly shown)
- IC50 (A2780 (ovarian) cells; Homo sapiens): 0.9 nM
- IC50 (MCF-7 (breast) cells; [2]): 1.1 nM
- IC50 (HT-29 (colon) cells; Homo sapiens): 3.5 nM

SMILES: CCCCCN(C(=O)C(NC(=O)C1CCCCN1C)[C@@H](C)CC)[C@H](C[C@@H](OC(C)=O)c1nc(C(=O)N[C@@H](Cc2ccc(F)cc2)C[C@H](C)C(=O)O)cs1)C(C)C (stereo partly shown)
- IC50 (MCF-7 (breast) cells; [2]): 0.6 nM
- IC50 (HT-29 (colon) cells; Homo sapiens): 0.35 nM

SMILES: CC[C@H](C)C(NC(=O)C1CCCCN1C)C(=O)N(C)[C@H](C[C@@H](OC(C)=O)c1nc(C(=O)N[C@@H](Cc2ccc(F)cc2)C[C@H](C)C(=O)O)cs1)C(C)C (stereo partly shown)
- IC50 [1]: 1.93 nM
- IC50 (A2780 (ovarian) cells; Homo sapiens): 0.8 nM
- IC50 (HT-29 (colon) cells; Homo sapiens): 3 nM

SMILES: CC[C@H](C)C(NC(=O)C1CCCN1C)C(=O)N(C)[C@H](C[C@@H](OC(C)=O)c1nc(C(=O)N[C@@H](Cc2ccc(N(C)C)cc2)C[C@H](C)C(=O)O)cs1)C(C)C (stereo partly shown)
- IC50 (A2780 (ovarian) cells; Homo sapiens): 0.7 nM
- IC50 (HT-29 (colon) cells; Homo sapiens): 2.1 nM

SMILES: CC[C@H](C)C(NC(=O)C1CCCCN1C)C(=O)N(C)[C@H](C[C@@H](OC(C)=O)c1nc(C(=O)N[C@@H](Cc2ccc(-c3ccccc3)cc2)C[C@H](C)C(=O)O)cs1)C(C)C (stereo partly shown)
- IC50 (A2780 (ovarian) cells; Homo sapiens): 1.4 nM
- IC50 (HT-29 (colon) cells; Homo sapiens): 2.3 nM
